Assay [1] deals with T1, bovine serum albumin (BSA) (Bos taurus, UniProt P02769).
T1 construct: gene ALB
Kind of assay: intrinsic tryptophan fluorescence quenching titration (apparent kD); supported by CD spectra and CD melting (ΔTm −[…] °C). It counts as binding.

The target in assay [2] is T1, bovine serum albumin (BSA). Briefly: intrinsic tryptophan fluorescence quenching titration (apparent kD); supported by CD spectra and CD melting (ΔTm +[…] °C). It counts as binding.

T1 sequence (P02769 25-607): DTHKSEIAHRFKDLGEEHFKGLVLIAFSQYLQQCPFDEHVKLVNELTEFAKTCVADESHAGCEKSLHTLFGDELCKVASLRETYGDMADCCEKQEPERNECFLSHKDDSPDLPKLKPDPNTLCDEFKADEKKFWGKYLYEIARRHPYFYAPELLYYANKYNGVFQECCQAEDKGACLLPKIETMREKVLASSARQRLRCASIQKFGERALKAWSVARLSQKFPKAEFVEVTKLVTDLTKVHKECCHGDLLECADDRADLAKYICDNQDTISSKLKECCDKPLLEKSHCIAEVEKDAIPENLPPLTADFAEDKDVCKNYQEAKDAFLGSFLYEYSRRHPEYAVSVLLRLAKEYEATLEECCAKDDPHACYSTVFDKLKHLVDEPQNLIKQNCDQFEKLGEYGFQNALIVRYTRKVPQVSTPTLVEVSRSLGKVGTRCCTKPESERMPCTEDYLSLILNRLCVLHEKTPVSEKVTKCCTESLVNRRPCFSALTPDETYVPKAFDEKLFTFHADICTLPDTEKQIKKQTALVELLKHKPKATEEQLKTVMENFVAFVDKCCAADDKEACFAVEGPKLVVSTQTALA

Regarding `CCCCOC(=O)c1c(N)oc2c(-c3ccc([N+](=O)[O-])cc3)c3c(C(=O)OCCCC)c(N)oc3cc12` [BDF1], the Kd in assay [1] worked out at 142 ± 64.6 nM.

With `CCCCOC(=O)c1c(N)oc2ccc(O)c(-c3ccc([N+](=O)[O-])cc3)c12` [BF1], in assay [2], the Kd is 28.4 ± 10.1 nM.

For the origin of these results see PMC8961527, “Protein Binding of Benzofuran Derivatives: A CD Spectroscopic and In Silico Comparative Study of the Effects of 4-Nitrophenyl Functionalized Benzofurans and Benzodifurans on BSA Protein Structure” (Biomolecules, 2022).
